Values quoted from earlier work, collected in US20090062282A1, “Substituted Amino-Pyrimidones and Uses Thereof” (AstraZeneca AB, priority 2004, published 2009).
Square brackets hold non-standard residues; d marks the D form. Peptide text beside a SMILES is read from it. * marks the point of attachment. Sta = CC(C)C[C@H](N)[C@@H](O)CC(=O)O; Isovaleryl = CC(C)CC(=O)*

Target: BACE (Homo sapiens, UniProt P56817)
Sequence (P56817 46-501): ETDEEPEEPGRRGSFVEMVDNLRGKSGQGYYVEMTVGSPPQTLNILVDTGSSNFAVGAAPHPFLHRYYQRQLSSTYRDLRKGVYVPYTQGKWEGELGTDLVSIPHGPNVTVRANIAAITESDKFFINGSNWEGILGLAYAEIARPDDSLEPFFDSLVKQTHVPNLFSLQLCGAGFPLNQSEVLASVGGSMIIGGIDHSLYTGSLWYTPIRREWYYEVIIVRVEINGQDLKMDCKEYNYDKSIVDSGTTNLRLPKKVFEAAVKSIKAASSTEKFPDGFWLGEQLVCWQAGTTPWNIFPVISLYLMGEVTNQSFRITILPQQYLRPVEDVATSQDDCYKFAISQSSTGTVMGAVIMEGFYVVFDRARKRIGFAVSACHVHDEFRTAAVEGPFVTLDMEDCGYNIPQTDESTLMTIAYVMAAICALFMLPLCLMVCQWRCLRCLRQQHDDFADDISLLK

inhibition of BACE: inhibited weakly
Compound: CC(C)CC(=O)N[C@H](C(=O)N[C@H](C(=O)N[C@@H](CC(C)C)[C@@H](O)CC(=O)N[C@@H](C)C(=O)N[C@@H](CC(C)C)[C@@H](O)CC(=O)O)C(C)C)C(C)C [pepstatin] (Isovaleryl-VV[Sta]A[Sta]-OH)
